Tested on: infant fecal bacteria
Assay: In vitro substrate fermentation model with infant fecal inocula, isobutyrate (BCFA) analysis (Example 78)
Format: cell-based
Details: for greater concentration of isobutyrate than any of the other substrates: infant fecal inoculum cultures, P<0.05

Substance: 2′-α-L-Fucopyranosyl-D-Lactose [2′-FL]
- fermentation by infant fecal bacteria (in vitro fermentation model): readily fermented
- production of isobutyrate as compared to other substrates (in vitro fermentation model): enhances
- greater concentration of isobutyrate than any of the other substrates (6 hours): approximately 5 fold
- greater concentration of isobutyrate than any of the other substrates (12 hours): ~10 fold
